In patent US8084467B2, “Pyrazole derivatives as cannabinoid receptor antagonists” (University of Connecticut, priority 2004, dated 2011):
Several values for one entry are separate records, joined by “and”; a condition that tells them apart may be missing. Equal values may be shown once. Read-outs that look alike come from different tables or passages of the source.

How the values were obtained:
CB1 cannabinoid receptor = molecular target: T1, CB1 cannabinoid receptor (Rattus norvegicus, UniProt P20272); assay: CB1 receptor binding, rat forebrain membranes, [3H] CP-55,940 displacement; conditions: for Ki: 0.8 nM [3H] CP-55,940; for selectivity CB1: ratio of CB2 Ki to CB1 Ki
T1 construct: membranes were prepared from rat forebrain membranes; from tissue; host or cells: rat forebrain
T1 sequence (P20272 whole entry): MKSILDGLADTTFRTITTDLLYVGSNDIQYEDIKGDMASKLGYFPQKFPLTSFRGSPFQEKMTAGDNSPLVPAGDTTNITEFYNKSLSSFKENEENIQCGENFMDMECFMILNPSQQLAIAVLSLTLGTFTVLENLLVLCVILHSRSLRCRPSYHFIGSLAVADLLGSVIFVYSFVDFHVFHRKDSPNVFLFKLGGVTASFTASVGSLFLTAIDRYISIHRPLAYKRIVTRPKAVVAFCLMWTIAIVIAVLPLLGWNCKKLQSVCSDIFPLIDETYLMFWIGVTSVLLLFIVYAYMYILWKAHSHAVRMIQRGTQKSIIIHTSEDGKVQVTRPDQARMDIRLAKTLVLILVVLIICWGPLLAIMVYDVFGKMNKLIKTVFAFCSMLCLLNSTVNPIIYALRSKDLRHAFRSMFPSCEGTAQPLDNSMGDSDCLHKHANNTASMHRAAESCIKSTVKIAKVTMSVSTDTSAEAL
Description: Some of the inventive analogs were tested for CB2 receptor binding affinity and for CB1 receptor affinity (to determine selectivity). […] The lower the Ki value the higher the binding affinity. […]
Membranes, previously frozen at −80° C., were thawed on ice. To the stirred suspension was added three volumes of TME (25 mM Tris-HCl buffer, 5 mM MgCl2 and 1 mM EDTA) at a pH 7.4. The suspension was incubated at 4° C. for 30 min. At the end of the incubation, the membranes were pelleted and washed three times with TME.
(§1) The treated membranes were subsequently used in the binding assay described below. Approximately 30 μg of membranes were incubated in silanized 96-well microtiter plate with TME containing 0.1% essentially fatty acid-free bovine serum albumin (BSA), 0.8 nM [^3H] […] Radioactivity was detected using MicroScint 20 scintillation cocktail added directly to the dried filterplates, and the filterplates were counted using a Packard Instruments Top-Count. […] Data collected from three independent experiments performed with duplicate determinations was normalized between 100% and 0% specific binding for [^3H] […] The normalized data was analyzed using a 4-parameter nonlinear logistic equation to yield IC50 values.

CB2 receptor = molecular target: T2, CB2 receptor (Mus musculus, UniProt P47936); assay: CB2 receptor binding, mouse spleen membranes, same manner as the CB1 binding assay; conditions: for Ki: [3H] CP-55,940; for selectivity CB2: ratio of CB1 Ki to CB2 Ki
T2 construct: membranes were prepared from frozen mouse spleen; from tissue; host or cells: mouse spleen
T2 sequence (P47936 whole entry): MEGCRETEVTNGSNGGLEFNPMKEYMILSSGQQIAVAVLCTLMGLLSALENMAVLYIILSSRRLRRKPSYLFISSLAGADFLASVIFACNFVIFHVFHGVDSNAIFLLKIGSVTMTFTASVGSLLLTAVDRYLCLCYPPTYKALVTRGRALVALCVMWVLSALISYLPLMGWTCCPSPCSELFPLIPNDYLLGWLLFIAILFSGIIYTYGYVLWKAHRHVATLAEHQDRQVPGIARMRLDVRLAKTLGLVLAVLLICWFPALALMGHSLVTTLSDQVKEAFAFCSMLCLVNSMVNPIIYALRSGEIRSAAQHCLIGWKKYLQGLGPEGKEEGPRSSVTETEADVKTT
Description: Some of the inventive analogs were tested for CB2 receptor binding affinity and for CB1 receptor affinity (to determine selectivity). […] The lower the Ki value the higher the binding affinity.
as §1
Silanized centrifuge tubes were used throughout to minimize receptor loss due to adsorption. The CB2 binding assay was conducted in the same manner as for the CB1 binding assay. The binding affinities (Ki) were also expressed in nanomoles (nM).

[1] = rat forebrain membranes, read-out: affinities Ki CB1
[2] = mouse spleen membranes, read-out: affinities Ki CB2
[3] = affinities Ki CB1, rat forebrain membranes
[4] = affinities Ki CB2, mouse spleen membranes

Ki (CB1 cannabinoid receptor; [1])	selectivity CB1 (CB1 cannabinoid receptor)	Ki (CB2 receptor; [2])	Structure (SMILES)	Ki (CB1 cannabinoid receptor; [3])	Ki (CB2 receptor; [4])	selectivity CB2 (CB2 receptor)
29 nM	374.6	10900 nM	Cc1c(NC(=O)NC2CCCCC2)nn(-c2ccc(Cl)cc2Cl)c1-c1ccc(-c2cccnc2)cc1 [Compound 2-22]	–	–	–
24 nM	5.8	140 nM	CN(C)CCOCc1c(C(=O)NC2CCCCC2)nn(-c2ccc(Cl)cc2Cl)c1-c1ccc(Br)cc1 [Compound 1-16]	–	–	–
18 nM	120.5	2170 nM	Cn1nnc(-c2ccc(-c3c(CO)c(C(=O)NN4CCCCC4)nn3-c3ccc(Cl)cc3Cl)cc2)n1 [Compound 2-6]	–	–	–
210 nM	3.0	641 nM	CN(C(=O)c1nn(-c2ccc(Cl)cc2Cl)c(-c2ccc(-c3nnn(C)n3)cc2)c1CO)C1CCCCC1 [Compound 2-18]	–	–	–
–	–	–	Cc1c(C(=O)NC2CC(C)C3CC2C3(C)C)nn(CCCCCCl)c1-c1ccccc1 (centres unmarked) [Compound 4-7]	4.73 nM and 4.7 nM	2.76 nM and 2.8 nM	1.7
105 nM	5.2	551 nM	Cc1c(C(=O)N(C)C2CCCCC2)nn(-c2ccc(Cl)cc2Cl)c1-c1ccc(-c2nnn(C)n2)cc1 [Compound 2-15]	–	–	–
293 nM	3.8	1120 nM	CN(C(=O)c1nn(-c2ccc(Cl)cc2Cl)c(-c2ccc(-c3nnn[nH]3)cc2)c1CO)C1CCCCC1 [Compound 2-16]	–	–	–
154 nM	10.9	1680 nM	O=C(NN1CCCCC1)c1nn(-c2ccc(-c3cccnc3)cc2Cl)c(-c2ccc(-c3cccnc3)cc2)c1CO [Compound 3-20]	–	–	–
192 nM	2.4	463 nM	O=C(NC1CCCCC1)c1nn(-c2ccc(Cl)cc2Cl)c(-c2ccc(-c3nnn[nH]3)cc2)c1CO [Compound 2-10]	–	–	–
241 nM	4.0	968 nM	COCc1c(C(=O)NC2CCCCC2)nn(-c2ccc(Cl)cc2Cl)c1-c1ccc(-c2ccsc2)cc1 [Compound 1-17]	–	–	–
11.2 nM	118	1330 nM	Cc1c(C(=O)NN2CCCCC2)nn(-c2ccc(Cl)cc2Cl)c1-c1ccc(-c2cccnc2)cc1 [Compound 1-4]	–	–	–
26 nM	838.1	21800 nM	Cc1c(NC(=O)NC2CCCCC2)nn(-c2ccc(Cl)cc2Cl)c1-c1ccc(I)cc1 [Compound 3-10]	–	–	–
1270 nM	–	941 nM	Cc1c(C(=O)N(C)C2CCCCC2)nn(-c2ccc(Cl)cc2Cl)c1-c1ccc(-c2nnnn2C)cc1 [Compound 2-14]	–	–	1.4
76 nM	–	207 nM	O=C(NN1CCCCC1)c1nn(-c2ccc(Cl)cc2Cl)c(-c2ccc(-c3cccnc3)cc2)c1CO [Compound 3-21]	–	–	–
22 nM	213.3	4690 nM	Cc1c(C(=O)NN2CCCCC2)nn(-c2ccc(Cl)cc2Cl)c1-c1ccc(C#N)cc1 [Compound 3-23]	–	–	–
146 nM	13.2	1920 nM	O=C(NN1CCCCC1)c1nn(-c2ccc(-c3cccnc3)cc2Cl)c(-c2ccc(-c3cccnc3)cc2)c1CO [Compound 3-19]	–	–	–
1840 nM	7.4	13600 nM	O=C(NN1CCCCC1)c1nn(-c2ccc(Cl)cc2Cl)c(-c2ccc(-c3nnn[nH]3)cc2)c1CO [Compound 2-4]	–	–	–
69 nM	6.5	449 nM	Cc1c(NC(=O)OC2CCCCC2)nn(-c2ccc(Cl)cc2Cl)c1-c1ccc(Br)cc1 [Compound 3-9]	–	–	–
47 nM	6.0	284 nM	Cc1c(NC(=O)N2CCCCC2)nn(-c2ccc(Cl)cc2Cl)c1-c1ccc(Br)cc1 [Compound 3-13]	–	–	–
118 nM	1	122 nM	Cn1nnnc1-c1ccc(-c2c(CO)c(C(=O)NC3CCCCC3)nn2-c2ccc(Cl)cc2Cl)cc1 [Compound 2-11]	–	–	–
105 nM	452	47500 nM	CCOCc1c(C(=O)NC23CC4CC(CC(C4)C2)C3)nn(-c2ccc(Cl)cc2Cl)c1-c1ccc(Br)cc1 [Compound 1-11]	–	–	–

Structure (SMILES)	Ki (CB1 cannabinoid receptor; [1])	selectivity CB1 (CB1 cannabinoid receptor)	Ki (CB2 receptor; [2])	Ki (CB1 cannabinoid receptor; [3])	Ki (CB2 receptor; [4])	selectivity CB2 (CB2 receptor)
COCc1c(C(=O)N(C)C2CCCCC2)nn(-c2ccc(Cl)cc2Cl)c1-c1ccc(Br)cc1 [Compound 1-29]	–	7.5	–	273 nM	2040 nM	–
COCc1c(C(=O)NN2CCCCC2)nn(-c2ccc(Cl)cc2Cl)c1-c1ccc(Br)cc1 [Compound 1-8]	–	31	–	19 nM	561 nM	–
